# Values of other authors, collected in patent publication US6761903B2, “Clear oil-containing pharmaceutical compositions containing a therapeutic agent” (Lipocine, Inc., priority 1999, dated 2004).
# Conditions: as reported by the manufacturer of the commercial product, rough average or inventors' judgment
row,Compound,HLB
1,"1,2 and 1,3-diolein [1,2 and 1,3-diolein (C18:1)]",<10
2,CCCCC/C=C\C/C=C\CCCCCCCC(=O)OCC [Ethyl linoleate],<10
3,CCCCCCCC/C=C\CCCCCCCC(=O)OCC [Ethyl oleate],<10
4,CCCCC/C=C\C/C=C\CCCCCCCC(=O)OCC(O)CO (stereo not shown) [Glycerol monolinoleate],3-4
5,CCCCCCCCCCCCCCCC(=O)OCC(O)CO (stereo not shown) [Glycerol monopalmitate],4
6,CCCCCCCCCCCCCCCCCC(=O)OCC(O)CO (stereo not shown) [Glycerol monostearate],5-9
7,CC(=O)OCC(O)CO (stereo not shown) [Glyceryl acetate],<10
8,CCCCCCCC(=O)OCC(O)CO (stereo not shown) [Glyceryl caprylate],5-6
9,CCCCCCCCCCCC(=O)OCC(O)CO (stereo not shown) [Glyceryl laurate],4
10,CCCCCCCCCCCC(=O)OCC(O)CO (stereo not shown) [Glyceryl monolaurate],6.8
11,"CCCCCCCCCCCCCC(=O)OCC(O)CO (stereo not shown) [Glyceryl monomyristate (C14), Glyceryl monomyristate]",3-4
12,"CCCCCCCC/C=C\CCCCCCCC(=O)OCC(O)CO (stereo not shown) [Glyceryl monooleate (C18:1), Glyceryl monooleate]",3-4
13,CCCCCCCCCCCCCCCCCC(=O)OCC(O)CO (stereo not shown) [Glyceryl monostearate],4.4
14,CCCCCC[C@@H](O)C/C=C\CCCCCCCC(=O)OCC(O)CO (stereo partly shown) [Glyceryl ricinoleate],6
15,CCCCC/C=C\C/C=C\CCCCCCCC(=O)OC(C)C [Isopropyl linoleate],<10
16,CCCCCCCCCCCCCC(=O)OC(C)C [Isopropyl myristate],<10
17,CCCCCCCCCC(=O)OCC(O)CO (stereo not shown) [Monocaprin],<10
18,"CCCCCC(=O)OCC(O)CO (stereo not shown) [Monocaproin (C6), Monocaproin]",<10
19,CCCCCCCC(=O)OCC(O)CO (stereo not shown) [Monocaprylin],<10
20,"CCCCCCCC/C=C/CCCCCCCC(=O)OCC(O)CO (stereo not shown) [Monoelaidin (C18:1), Monoelaidin]",<10
21,CCCCCCCCCCCC(=O)OCC(O)CO (stereo not shown) [Monolaurin],<10
22,"CCCCCC/C=C\CCCCCCCC(=O)OCC(O)CO (stereo not shown) [Monopalmitolein (C16:1), Monopalmitolein]",<10
23,CCCCCCCCCCCCCCCCCC(=O)OCCO [PEG-1 stearate],2
24,CCCCCCCCCCCCOCCOCCOCCOCCO [PEG-4 lauryl ether],9.7

row,Compound,HLB
1,CCCCCCCCCCCCCCCCCC(=O)OCC(CO)(CO)COC(=O)CCCCCCCCCCCCCCCCC [Pentaerythrityl distearate],<10
2,CCCCCCCC/C=C\CCCCCCCC(=O)OCC(COC(=O)CCCCCCC/C=C\CCCCCCCC)(COC(=O)CCCCCCC/C=C\CCCCCCCC)COC(=O)CCCCCCC/C=C\CCCCCCCC [Pentaerythrityl tetraoleate],<10
3,CCCCCCCCCCCCCCCCCC(=O)OCC(COC(=O)CCCCCCCCCCCCCCCCC)(COC(=O)CCCCCCCCCCCCCCCCC)COC(=O)CCCCCCCCCCCCCCCCC [Pentaerythrityl tetrastearate],<10
4,CCCCCCCCCC(=O)OCC(C)OC(=O)CCCCCCCCC (stereo not shown) [Propylene glycol dicaprate],>6
5,CCCCCCCCCCCC(=O)OCC(C)OC(=O)CCCCCCCCCCC (stereo not shown) [Propylene glycol dilaurate],>6
6,CCCCCCCC(=O)OCC(C)OC(=O)CCCCCCC (stereo not shown) [Propylene glycol dioctanoate],>6
7,CCCCCCCCCCCCCCCCCC(=O)OCC(C)OC(=O)CCCCCCCCCCCCCCCCC (stereo not shown) [Propylene glycol distearate],>6
8,"CCCCCCCCCCCCOS(=O)(=O)[O-].[Na+] [Sodium lauryl sulfate (dodecyl), Sodium lauryl sulfate]",40
9,CCCCCCCC/C=C\CCCCCCCC(=O)[O-].[Na+] [Sodium oleate],18
10,Caprylic/capric glycerides,<10
11,Dicaprin [Dicaprin (C10)],<10
12,Dicaproin [Dicaproin (C6)],<10
13,Dielaidin [Dielaidin (C18:1)],<10
14,Dilinolein [Dilinolein (C18:2)],<10
15,Dimyristin [Dimyristin (C14)],<10
16,Dioctanoin [Dioctanoin (C8)],<10
17,Dipalmitin [Dipalmitin (C16)],<10
18,Dipalmitolein [Dipalmitolein (C16:1)],<10
19,Distearin,<10
20,Glycerol monooleate/linoleate,3-4
21,Glyceryl citrate/lactate/oleate/linoleate,<10
22,Glyceryl dilaurate [Glyceryl dilaurate (C12)],3-4
23,Glyceryl dioleate,3-4
24,"Glyceryl mono-, dioleate",<10

row,Compound,HLB
1,Glyceryl palmitic/stearic,<10
2,PEG 4-100 monolaurate,>9
3,PEG 4-100 monooleate,>8
4,PEG 4-100 monostearate,>6
5,"PEG 100,200,300 monolaurate",>10
6,"PEG 100,200,300 monooleate",>10
7,PEG 400 dioleate,>10
8,PEG 400 distearate,>10
9,PEG 400-1000 monostearate,>10
10,PEG-2 oleate,4.5
11,PEG-2 stearate,4
12,PEG-3 oleyl ether,<10
13,PEG-4 dilaurate,7
14,PEG-4 dioleate,6
15,PEG-4 distearate,5
16,PEG-4 oleate,8.3
17,PEG-4 stearate,6.5
18,PEG-5 oleate,9.5
19,PEG-5 oleyl ether,<10
20,PEG-5 soya sterol,<10
21,PEG-5 stearate,9.5
22,PEG-6 dilaurate,9.8
23,PEG-6 dioleate,7.2
24,PEG-6 distearate,6.5

row,Compound,HLB
1,PEG-6 sorbitan monostearate,11
2,PEG-6 stearate,9.7
3,PEG-7 oleate,10.4
4,PEG-8 dioleate,8.8
5,PEG-9 oleate,>10
6,PEG-9 stearate,>10
7,PEG-10 dipalmitate,>10
8,PEG-10 soya sterol,<10
9,PEG-12 dilaurate,11.7
10,PEG-12 dioleate,10
11,PEG-12 distearate,10.7
12,PEG-12 oleate,14
13,PEG-12 ricinoleate,>10
14,PEG-12 stearate,14
15,PEG-15 stearate,14
16,PEG-20 glyceryl oleate,>10
17,PEG-20 soya sterol,<10
18,PEG-24 cholesterol ether,>10
19,PEG-25 phyto sterol,>10
20,PEG-30 cholestanol,>10
21,PEG-30 glyceryl oleate,>10
22,PEG-30 soya sterol,>10
23,PEG-30 stearate,>10
24,PEG-40 oleate,17.4

row,Compound,HLB
1,PEG-40 stearate,>10
2,PEG-50 stearate,>10
3,PEG-100 oleate,18.8
4,PEG-100 stearate,19
5,PEG-200 oleate,>10
6,PEG-400 dioleate,>10
7,PEG-400 distearate,>10
8,PEG-400 oleate,>10
9,PEG-600 oleate,>10
10,Pentaerythrityl tetracaprylate/tetracaprate,<10
11,Pentaerythrityl tetraisostearate,<10
12,Phytosterol,<10
13,Polyglyceryl-2 dioleate,7
14,Polyglyceryl-2 isostearate,5-7
15,Polyglyceryl-2 oleate,5-7
16,Polyglyceryl-2 stearate,5-7
17,Polyglyceryl-3 dioleate,<10
18,Polyglyceryl-3 distearate,<10
19,Polyglyceryl-3 oleate,6.5
20,Polyglyceryl-4 oleate,5-7
21,Polyglyceryl-4 pentaoleate,<10
22,Polyglyceryl-4 stearate,5-6
23,Polyglyceryl-6 oleate,9
24,Polyglyceryl-6 pentaoleate,<10

row,Compound,HLB
1,Polyglyceryl-6 ricinoleate,>8
2,Polyglyceryl-10 decaisostearate,<10
3,"Polyglyceryl-10 mono, dioleate",11
4,Polyglyceryl-10 oleate,14
5,Polyglyceryl-10 pentaoleate,3.5
6,Polyglyceryl-10 septaoleate,3
7,Polyglyceryl-10 tetraoleate,6.2
8,Polyglyceryl-10 trioleate,7
9,Polyglyceryl-101 decaoleate,3.5
10,Propylene glycol dicaprylate/dicaprate,>6
11,Sorbitan monoisostearate,4.7
12,Sorbitan monooleate,4.3
13,Sorbitan monopalmitate,6.7
14,Sorbitan monostearate,4.7
15,Sorbitan sesquistearate,4.2
16,Sorbitan trioleate,4.3
17,Sucrose dipalmitate,7.4
18,Sucrose distearate,3
19,Sucrose monopalmitate,>10
